Assay results as given in patent US7250157B2, “Dermatological compositions and methods” (Applied Genetics Incorporated Dermatics, priority 1996, dated 2007).
Several values for one entry are separate records, joined by “and”; a condition that tells them apart may be missing. Identical values can stand only once.

How the values were obtained:
[1] = tested on: Cloudman S91 mouse melanoma cell line; assay: Melanin content of S91 cells after treatment with test compound; assay type: cell-based
Method: The Cloudman S91 mouse melanoma cell line was obtained from American Type Culture Collection (ATCC). […] For testing propylene glycol and analogues for induction of melanogenesis, S91 cells were plated at 10^5 cells/35 mm dish in 10% calf serum. […] Cells were cultured for 6 days at 37° C. in 5% CO2 in a humidified incubator. Following this treatment period, cells were examined microscopically and the portion of dedifferentiated and differentiated cells was estimated.
Following this microscopic examination, cells were detached from dishes by trypsin. The time required for detachment by trypsin was recorded as an additional indicator of the phenotypic effects of test compounds. For each treatment, a subsample of cells was counted to determine the effects of treatment compounds on cellular proliferation. The remainder of cells were used for determination of melanin content. […] Absorbance of standards and samples was measured at 475 nm. Melanin was expressed as pg melanin/cell.

[2] = tested on: Normal human epidermal melanocytes (NHEMs); assay: Melanin induction in normal human epidermal melanocytes; assay type: cell-based
Method: Normal human epidermal melanocytes (NHEMs) were examined for induction of melanogenesis using cells and media from Clonetics Corporation (San Diego, Calif.). Cells were cultured exactly as specified by the supplier.

[3] = tested on: Cloudman S91 mouse melanoma cell line; assay: Cell count (proliferation, toxicity) of treated S91 cells; assay type: cell-based
Method: The Cloudman S91 mouse melanoma cell line was obtained from American Type Culture Collection (ATCC). Cells were cultured in Dulbecco's Modified Eagles Medium (DMEM) containing 10% calf serum, 2 mM L-glutamine, 10 U Penicillin/ml and 10 ug Streptomycin/ml according to a previously published protocol (Eller, et al., Proc. Natl. Acad. Sci. 93:1087-92. 1996). For testing propylene glycol and analogues for induction of melanogenesis, S91 cells were plated at 10^5 cells/35 mm dish in 10% calf serum. One day after plating, media was removed and replaced with media containing 2% calf serum and test compounds (Eller, et al., 1996). Cells were cultured for 6 days at 37° C. in 5% CO2 in a humidified incubator. Following this treatment period, cells were examined microscopically and the portion of dedifferentiated and differentiated cells was estimated. Previous studies have shown that dedifferentiated S91 cells have a rounded, spindly appearance while differentiated S91 cells have a flattened, cuboidal, multipolar and dendritic appearance (Orlow, et al., Exp. Cell Res. 191:209-218, 1990).
Following this microscopic examination, cells were detached from dishes by trypsin. The time required for detachment by trypsin was recorded as an additional indicator of the phenotypic effects of test compounds. For each treatment, a subsample of cells was counted to determine the effects of treatment compounds on cellular proliferation. The remainder of cells were used for determination of melanin content. Melanin was extracted from cells by vortexing for 15 min in 1N NaOH. Standards were prepared by dissolving melanin (Sigma) in 1 N NaOH (Eller, et al., 1996). Absorbance of standards and samples was measured at 475 nm. Melanin was expressed as pg melanin/cell.

[4] = tested on: tyrosinase activity in S91 mouse melanoma cells; assay: Induction of tyrosinase activity in S91 cells; settings: 300 mM PG-1,2; 25 mM 3,3-M-1,2-BD; 50 mM 1,2-cs-CPD; 5 mM 5-NBene-2,2-DM; 0.5 mM 2,3-Pyd; 0.1 mM IBMX; mean ±SE
[5] = tested on: American short-haired guinea pigs; assay: Topical melanogenesis (pigmentation rating) in guinea pigs; assay type: in vivo, guinea pig; set-up: Pigmentation Rating / Pigmentation Rating Background Corrected: scale not given here; settings: for Pigmentation Rating Normalized to 1,2-PG / Pigmentation Rating Normalized to 1M / Pigmentation Rating Background Corrected / Pigmentation Rating: No Penetration Enhancer; for Pigmentation Rating Normalized to 1,2-PG / Pigmentation Rating Normalized to 1M / Pigmentation Rating Background Corrected: concentrations as E85; for Pigmentation Rating Background Corrected: corrected for Nair control; for Pigmentation Rating: sites c and d, 11.0M 2,3-M-2,3-BD, 11.3M 2-M-1,3-PG, 8.7M 1,2-cs-CPD, 4.0M 3,3-M-1,2-BD; for greater melanogenesis than PG applied at similar body locations: guinea pig, 5 days; for relative melanogenesis rating (mean ±SE), scale 0-4: 25 μl twice per day for 5 days, rated two weeks after
Method: Compounds were tested for melanogenic activity in vivo by application to American short-haired guinea pigs. Treatment sites were created by removal of fur using Nair® brand depilatory. In the Table, the numbers presented are the relative melanogenesis rating (mean ±SE), and are arranged according to the relative location on the animal, with the head being to the left and the tail being to the right. Propylene glycol (PG=13.6M), 2,3-butanediol (2,3-BD=10.95M), and 1,2-cis-cyclopentanediol (1,2-cs-CPD=10.7M) were applied as full strength solutions. 3,3-dimethyl-1,2-butanediol (3,3-M-1,2-BD) was applied as a 4M solution dissolved in ethanol. Two weeks following cessation of treatments, the degree of pigmentation was subjectively rated according to the following scale:
In order to minimize the effects of dimunition of response from head to tails of animals, all future experiments were done using only treatment spots located towards the tails of animals (c and d in Table 7). Deemed as additionally beneficial, in this area of the animal differences of responsiveness to strong and weak inducers of pigmentation, as deduced from cell culture, were greatest. […] Pigmentation ratings were corrected for background (control treatment spots), normalized to 1M to account for the different amounts of each agent applied, and then normalized to results for 1,2-PG (Table 8). […] It is anticipated that further improvements in formulation will additionally improve responsiveness to 5-NBene-2,2-DM and other compounds in this invention.
In FIG. 5, a, b, c and d indicate treatment spots that transverse the anterior-posterior axis along the backs of guinea pigs.

[6] = tested on: Tyrosinase in normal human epidermal melanocytes (NHEM); assay: Tyrosinase in NHEM (in situ, cellular, extracellular particulate, media); assay type: cell-based
Method: Tyrosinase was measured in normal human epidermal melanocytes (NHEM) using procedures identical to those described for S91 cells (Example 6), […], 1600×g, or 17,300×g for analysis of tyrosinase activity in the extracellular exported melanosomal particulate fraction, and in the resultant supernatant media fraction. In some cases (Table 11), tyrosinase was also measured by an in situ assay wherein radiolabelled tyrosine was added directly to freshly replaced media of NHEM for a period of 24 hrs following a 5 day treatment period (Abdel-Malek, et al., 1992, J. Cell. Physiol. 150:416-425). […] Both 5 mM 5-NBene-2,2-DM and 25 mM 3,3-M-1,2-BD induced more tyrosinase in each of these assays and fractions than did 1,2-PG. IBMX (3-isobutyl-1-methyl-xanthine) provided as a positive control, induced as much tyrosinase as 5 mM 5-NBene-2,2-DM in the in situ assay, but less in cellular, extracellular particulate and media fractions (Table 11).

[7] = range of concentrations up to a toxic dose
[8] = 5 day treatment, concentrations as E130
[9] = pair of replicates, concentrations as E130

Row | SMILES | Tyrosinase dpm/hr 10^3 Cells [4] [dpm/hr/10^3 Cells] | Tyrosinase dpm/hr ug Protein [4] [dpm/hr/ug Protein] | Concentration Required for ≧2-fold Melanin Induction in S91 Cells [1] [mM] | Concentration Required for ≧1.5-fold Melanin Induction in NHEMs [2] [mM] | Pigmentation Rating Normalized to 1,2-PG [5] | Pigmentation Rating Normalized to 1M [5] | Pigmentation Rating Background Corrected [5] | Pigmentation Rating ([5]; 13.61M 1,2-PG) | greater melanogenesis than PG applied at similar body locations [5] [fold] | further results
1 | O=C[C@H](O)[C@H](O)[C@H](O)CO [D-ribose] |  |  |  |  |  |  |  |  |  | melanogenesis in S91 cells (≧2-fold increase = significant) [1, 7]: did not induce significant (≧2-fold increase) melanogenesis; melanin induction in NHEMs (in words) [2, 7]: inactive
2 | Oc1cccnc1O [2,3-Pyridinediol, 2,3-pyridinediol] | 142 ± 8 | 160 ± 19 | 0.1 | 0.2 |  |  |  |  |  | toxicity to S91 cells ([3]; levels higher than 500 uM): toxic
3 | O[C@@H]1CCC[C@@H]1O [1,2-cs-CPD, 1,2-cis-cyclopentanediol] | 276 ± 16 | 925 ± 53 | 10 | 50 | 13.5 ± 1.9 | 0.202 ± 0.029 | 1.75 ± 0.25 | 1.89 ± 0.27 | 5.5 | relative melanogenesis rating (mean ±SE), scale 0-4 ([5]; site d (tail), full strength solutions): 1.83 ± 0.33^2; Pigmentation Ratings (X ± SE; n = 6; scale 0 to +4) ([5]; spot a (anterior), 8.7M 1,2-cis-CPD in 20% ETOH, 1M 5-NBene-2,2-DM in 8.5 M propylene glycol, 2% 2-pyrrolidone, 20% ETOH, 1M 2,3-cs/ex PD in 50% ETOH): 1.83 ± 0.17; Pigmentation Ratings (X ± SE; n = 6; scale 0 to +4) ([5]; spot b, formulations as E220): 1.92 ± 0.43; Pigmentation Ratings (X ± SE; n = 6; scale 0 to +4) ([5]; spot c, formulations as E220): 1.92 ± 0.20; Pigmentation Ratings (X ± SE; n = 6; scale 0 to +4) ([5]; spot d (posterior), formulations as E220): 1.58 ± 0.24
4 | CC(C)(O)C(C)(C)O [2,3-M-2,3-BD, 2,3-dimethyl-2,3-butanediol] |  |  | 25 | 50 | 1.0 ± 0.6 | 0.015 ± 0.008 | 0.17 ± 0.09 | 0.25 ± 0.14 |  | pigmentation response versus control (Nair or 2% 2P treated) spots ([5]; sites towards tail, 13.61M 1,2-PG, 10.6M 1,2-PG/2% 2P, 11M 2,3-dimethyl-2,3-butanediol): not significantly different from control
5 | CC(C)(C)C(O)CO (stereo not shown) [3,3-M-1,2-BD, 3,3-dimethyl-1,2-butanediol] | 1211 ± 38 | 1746 ± 220 | 10 | 12.5 | 18.1 ± 6.8 | 0.272 ± 0.102 | 1.09 ± 0.41 | 1.17 ± 0.44 | 4.5 | toxicity to S91 cells ([3]; concentrations that induce much higher levels of tyrosinase): nontoxic; relative melanogenesis rating (mean ±SE), scale 0-4 ([5]; site c, full strength, 3,3-M-1,2-BD 4M in ethanol): 1.16 ± 0.66^2; Tyrosinase In Situ ([6]; 5 day treatment, 300 mM 1,2-PG, 25 mM 3,3-M-1,2-BD, 5 mM 5-NBene-2,2-DM, 0.1 mM IBMX): 20.5 dpm/hr/10^3 Cells and 21.0 dpm/hr/10^3 Cells; Tyrosinase 200 g Partic [6, 8]: 1646 dpm/hr/10^3 Cells and 2226 dpm/hr/10^3 Cells; Tyrosinase Cellular [6, 8]: 11728 dpm/hr/10^3 Cells and 11730 dpm/hr/10^3 Cells; Tyrosinase 17300 g Partic ([6]; Post 200 X g, 5 day treatment, concentrations as E130): 536 dpm/hr/10^3 Cells and 425 dpm/hr/10^3 Cells; Tyrosinase Media ([6]; Post 17300 X g, 5 day treatment, concentrations as E130): 5495 dpm/hr/10^3 Cells and 3056 dpm/hr/10^3 Cells; Tyrosinase 200 g Partic, relative to controls (in parentheses) [6, 9]: (5.64X); Tyrosinase 17300 g Partic, relative to controls (in parentheses) [6, 9]: (4.20X); Tyrosinase Cellular, relative to controls (in parentheses) [6, 9]: (1.15X); Tyrosinase In Situ, relative to controls (in parentheses) [6, 9]: (1.31X); Tyrosinase Media, relative to controls (in parentheses) [6, 9]: (2.75X)
